Results taken from patent US10030089B2, “Sugar free, statistical copolymers made from at least three monomers” (REGENTS OF THE UNIVERSITY OF MINNESOTA, priority 2013, dated 2018).

Assay: Phenytoin dissolution control
Type: physicochemical
Experimental: Probucol and phenytoin concentrations were quantified using a Agilent 1260 Infinity Quaternary HPLC equipped. The HPLC consisted of a reversed-phase EC-C18 column (Poroshell 120, 4.6×50 mm, 2.7 μm, Agilent, USA). The mobile phase was acetonitrile:water 96:4 for probucol and acetonitrile:water 40:60 for phenytoin, and the flow rate was 1.0 mL/min. A 10 μL aliquot of sample was injected, and the column effluent was detected at 241 nm for probucol (eluted at 2.90 min) and 225 nm for phenytoin (eluted at 1.40 min) with a UV detector (1260 Infinity Multiple Wavelength Detector, Agilent). The standard curve linearity was verified from 0.1 to 1000 μg/mL with an r^2 value of at least 0.999.

- Concentration (Time (s) 0): 0 ng/mL
- Concentration (Time (s) 4): 38000 ng/mL
- Concentration (Time (s) 10): 46000 ng/mL
- Concentration (Time (s) 20): 45000 ng/mL
- Concentration (Time (s) 40): 48000 ng/mL
- Concentration (Time (s) 90): 51000 ng/mL
- Concentration (Time (s) 180): 45000 ng/mL
- Concentration (Time (s) 360): 48000 ng/mL
Compound: O=C1NC(=O)C(c2ccccc2)(c2ccccc2)N1 [Phenytoin, phenytoin]
